Reference: the supplement of paper PMC10307832

Legend:
Experiment in all cases: relative viability (nuclei count vs DMSO), 5 days (fraction); higher = more cells survive
[1] = compound: C1CNCCC1C2=CC(=NN2)C3=CC=NC=C3 + CC(=O)c1c(C)c2cnc(Nc3ccc(N4CCNCC4)cn3)nc2n(C2CCCC2)c1=O [Palbociclib] (partner 0.5 µM)
Outline: (§1)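 Values are medians from duplicate plates. Each reflects relative viability, defined as the nuclei count of treated wells over that of vehicle wells. Lung cancer cell lines in 1536-well plates were pin-tool dosed one day after seeding with one drug alone or with a fixed anchor-drug dose plus five library-drug doses (not always all listed) in √10 steps, then fixed, stained and imaged at 4× after 5 days.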

[2] = compound: C1CNCCC1C2=CC(=NN2)C3=CC=NC=C3 + N=C(N)NC(=N)NCCc1ccccc1 [Phenformin] (partner 250 µM)
Outline: as §1

[3] = compound: C[C@@H](N)c1ccc(C(=O)Nc2ccnc3[nH]ccc23)cc1 + C[C@@H](Oc1cc(-c2cnn(C3CCNCC3)c2)cnc1N)c1c(Cl)ccc(F)c1Cl [Crizotinib] (partner 1 µM)
Outline: as §1

Tanzisertib + Bortezomib = compound: O[C@H]1CC[C@H](Nc2ncc3nc(Nc4c(F)cc(F)cc4F)n([C@H]4CCOC4)c3n2)CC1 [Tanzisertib] + CC(C)C[C@H](NC(=O)[C@H](Cc1ccccc1)NC(=O)c1cnccn1)B(O)O [Bortezomib] (partner 0.002 µM)
Outline: as §1

Cell Line | relative viability ([1]; first compound 0.08 µM) | relative viability ([1]; first compound 0.8 µM) | relative viability ([1]; first compound 2.53 µM) | relative viability ([1]; first compound 8 µM) | relative viability ([2]; first compound 0.08 µM) | relative viability ([2]; first compound 2.53 µM) | relative viability ([2]; first compound 8 µM) | relative viability ([3]; first compound 0.04 µM) | relative viability ([3]; first compound 0.1265 µM) | relative viability ([3]; first compound 0.4 µM) | relative viability ([3]; first compound 1.265 µM) | relative viability ([3]; first compound 4 µM) | relative viability (Tanzisertib + Bortezomib; first compound 0.08 µM) | relative viability (Tanzisertib + Bortezomib; first compound 0.253 µM) | relative viability (Tanzisertib + Bortezomib; first compound 0.8 µM) | relative viability (Tanzisertib + Bortezomib; first compound 2.53 µM) | relative viability (Tanzisertib + Bortezomib; first compound 8 µM) | relative viability ([2]; first compound 0.8 µM)
NCI-H1755 | 0.437 | 0.442 | 0.462 | 0.365 | 0.631 | 0.688 | 0.553 | 0.808 | 0.822 | 0.813 | 0.795 | 0.608 | 1.03 | 0.995 | 0.986 | 0.957 | 0.942 | –
NCI-H2023 | 0.315 | 0.379 | 0.418 | 0.386 | 0.357 | 0.498 | 0.423 | 0.738 | 0.596 | 0.733 | 0.741 | 0.544 | 1.18 | 1 | 1.06 | 0.855 | 0.371 | 0.411
LC-2-ad | 0.532 | 0.548 | 0.462 | 0.437 | – | 0.639 | 0.612 | 0.43 | 0.486 | 0.501 | 0.438 | 0.409 | 1.05 | 1.08 | 1.05 | 1.09 | 1.01 | 0.676
NCI-H1666 | 0.657 | 0.662 | 0.667 | 0.669 | 0.571 | 0.561 | 0.553 | 1.12 | 0.967 | 1.22 | 1.16 | 1.33 | 0.75 | 0.732 | 1.03 | 0.872 | 0.909 | 0.587
201T | 0.376 | 0.353 | 0.355 | 0.362 | 0.434 | 0.461 | 0.415 | 1.02 | 1.02 | 0.959 | 1.09 | 1.1 | 1.08 | 1.17 | 1.1 | 1.12 | 1.08 | 0.464
NCI-H2009 | 0.123 | 0.148 | 0.189 | 0.238 | 0.481 | 0.51 | 0.489 | 1.05 | 0.954 | 0.825 | 0.808 | 0.644 | 1.34 | 1 | 1.01 | 1.13 | 0.968 | 0.528
NCI-H2228 | 0.822 | 0.991 | 0.787 | 0.863 | 0.328 | 0.286 | 0.359 | 0.373 | 0.463 | 0.653 | 0.556 | 0.497 | 1.11 | 0.948 | 1.08 | 0.801 | 0.721 | 0.368
LU99A | 0.405 | 0.389 | 0.435 | 0.391 | 0.748 | 0.956 | 0.874 | 0.55 | 0.558 | 0.58 | 0.462 | 0.47 | 1.29 | 1.07 | 1.08 | 1.19 | 1.31 | 0.877
NCI-H1437 | 0.356 | 0.335 | 0.352 | 0.368 | 0.34 | 0.298 | 0.299 | 0.915 | 0.851 | 0.943 | 1.01 | 0.792 | 0.663 | 0.648 | 0.479 | 0.531 | 0.393 | 0.313
EKVX | 0.38 | – | 0.412 | 0.395 | 0.269 | 0.255 | 0.209 | 0.979 | 1.03 | 1.04 | 1.05 | 0.963 | 1.1 | 0.996 | 1.02 | 0.965 | 0.683 | 0.209
ABC-1 | 0.468 | 0.617 | 0.733 | 0.76 | 0.244 | 0.259 | 0.257 | 1.47 | 1.19 | 1.4 | 1.6 | 0.857 | 0.292 | 0.346 | 0.268 | 0.356 | 0.228 | 0.195
NCI-H520 | 0.176 | 0.167 | 0.219 | 0.147 | 0.439 | 0.758 | 0.908 | 0.824 | 0.852 | 0.801 | 1.05 | 0.804 | 0.945 | 0.739 | 0.606 | 0.51 | 0.446 | 0.309
LCLC-97TM1 | 0.206 | 0.295 | 0.251 | 0.194 | 0.328 | 0.437 | 0.396 | 0.32 | 0.322 | 0.463 | 0.961 | 0.638 | 1.13 | 1.24 | 0.784 | 0.957 | 0.518 | 0.511
NCI-H3122 | 0.152 | 0.185 | 0.181 | 0.178 | 0.329 | 0.402 | 0.364 | 0.286 | 0.295 | 0.264 | 0.346 | 0.303 | 1.06 | 1.02 | 1.04 | 1.03 | 1.01 | 0.414
PC-14 | 0.531 | 0.585 | 0.613 | 0.468 | 0.529 | 0.743 | 0.579 | 0.846 | 0.871 | 0.921 | 0.8 | 0.657 | 1.05 | 0.878 | 0.879 | 1.01 | 0.585 | 0.684
EPLC-272H | 0.343 | 0.359 | 0.326 | 0.334 | 0.317 | 0.35 | 0.396 | 0.922 | 0.891 | 0.957 | – | 0.61 | 1.04 | 0.949 | 0.876 | 0.943 | 1.04 | 0.299
A-427 | 0.486 | 0.559 | 0.529 | 0.49 | 0.375 | 0.323 | 0.299 | 0.875 | 0.882 | 0.959 | – | 0.894 | 1.09 | 0.938 | 1.01 | 0.96 | 0.927 | 0.38
